Measured values taken from ChEMBL document CHEMBL5108067, “Discovery of Potent OTUB1/USP8 Dual Inhibitors Targeting Proteostasis in Non-Small-Cell Lung Cancer” (J Med Chem, 2022).
Calls of active or inactive are those of the source. The rule behind the calls is not given here.

Assays:
[1] = molecular target: Ubiquitin thioesterase OTUB1 (Homo sapiens, UniProt Q96FW1); test: Inhibition of N-terminal His-6 tagged OTUB1 (40 to 271 residues) (unknown origin) expressed in Escherichia coli BL21 (DE3) cells at […] using Ub-Rho measured after 0.5 to 3 hrs by fluorescence based Plate reader method relative to control; conditions: dose 2.5 µM, time 0.5-3 hrs
[2] = molecular target: T1, Ubiquitin carboxyl-terminal hydrolase 8 (Homo sapiens) (UniProt P40818); test: Destabilization of N-terminal His-6 tagged USP8 (734 to 1110 residues) (unknown origin) expressed in Escherichia coli BL21 (DE3) cells assessed as change in melting temperature at 200 uM measured for 2 hrs in presence of dithiothreitol by SYPRO orange dye based thermal shift assay
T1 sequence (whole entry): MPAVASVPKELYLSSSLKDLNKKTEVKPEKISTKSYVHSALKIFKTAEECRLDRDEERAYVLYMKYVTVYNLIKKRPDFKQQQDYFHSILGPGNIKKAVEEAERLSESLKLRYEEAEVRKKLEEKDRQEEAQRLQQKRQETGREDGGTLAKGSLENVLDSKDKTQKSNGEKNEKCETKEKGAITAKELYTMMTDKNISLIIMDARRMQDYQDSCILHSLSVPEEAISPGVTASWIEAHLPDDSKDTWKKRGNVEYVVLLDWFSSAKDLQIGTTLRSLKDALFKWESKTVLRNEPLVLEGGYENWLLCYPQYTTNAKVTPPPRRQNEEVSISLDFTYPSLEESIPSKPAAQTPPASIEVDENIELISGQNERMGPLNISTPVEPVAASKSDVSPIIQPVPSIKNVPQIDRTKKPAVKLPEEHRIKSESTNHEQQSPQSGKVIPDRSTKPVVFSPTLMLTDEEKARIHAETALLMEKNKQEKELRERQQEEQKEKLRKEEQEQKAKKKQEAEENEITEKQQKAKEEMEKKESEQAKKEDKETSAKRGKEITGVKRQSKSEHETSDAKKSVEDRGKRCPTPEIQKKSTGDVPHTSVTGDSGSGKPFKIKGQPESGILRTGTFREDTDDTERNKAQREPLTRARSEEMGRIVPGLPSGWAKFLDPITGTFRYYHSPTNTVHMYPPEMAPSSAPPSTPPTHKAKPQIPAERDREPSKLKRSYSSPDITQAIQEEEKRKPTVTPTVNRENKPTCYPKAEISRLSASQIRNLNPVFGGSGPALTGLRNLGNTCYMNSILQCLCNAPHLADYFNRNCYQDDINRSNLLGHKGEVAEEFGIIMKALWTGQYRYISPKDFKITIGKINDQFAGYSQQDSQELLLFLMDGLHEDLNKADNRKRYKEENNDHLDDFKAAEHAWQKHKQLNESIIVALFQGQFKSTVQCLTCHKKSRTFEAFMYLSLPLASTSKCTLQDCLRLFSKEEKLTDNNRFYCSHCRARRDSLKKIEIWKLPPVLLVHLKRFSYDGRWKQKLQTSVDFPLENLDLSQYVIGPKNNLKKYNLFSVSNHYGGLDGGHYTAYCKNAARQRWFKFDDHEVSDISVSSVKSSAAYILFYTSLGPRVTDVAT

Mus musculus = test: In vivo inhibition of USP8 in human NCI-H1975 cells xenografted BALB/c nude mouse model assessed as decrease in USP8 level at 15 mg/kg/day, po measured after 5 days by Western blot analysis; format: functional, organism-based; conditions: time 5.0 day
NCI-H1975 [3] = test: Antitumor activity against human NCI-H1975 cells xenografted in BALB/c nude mouse model assessed as reduction of total tumor weight at 5 mg/kg, ip bid for 2 weeks; format: functional, organism-based
NCI-H1975 [4] = test: Antitumor activity against human NCI-H1975 cells xenografted in BALB/c nude mouse model assessed as reduction in tumor volume at 5 mg/kg, ip bid for 2 weeks; format: functional, organism-based

Sequence of Ubiquitin thioesterase OTUB1 (Q96FW1 whole entry, the tested form may be a part): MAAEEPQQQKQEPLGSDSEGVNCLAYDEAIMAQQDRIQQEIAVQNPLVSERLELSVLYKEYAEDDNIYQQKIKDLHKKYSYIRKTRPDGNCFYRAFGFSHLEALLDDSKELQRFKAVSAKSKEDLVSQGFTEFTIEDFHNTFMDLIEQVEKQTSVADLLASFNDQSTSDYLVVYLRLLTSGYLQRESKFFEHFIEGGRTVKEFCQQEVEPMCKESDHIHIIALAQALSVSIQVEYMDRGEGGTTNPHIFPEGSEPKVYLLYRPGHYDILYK

| inhibition [1] [%] | ΔTm [2] [°C] | Compound | Activity (Mus musculus) | Activity (NCI-H1975 [3]) | Activity (NCI-H1975 [4]) |
| --- | --- | --- | --- | --- | --- |
| 100 |  | O=C1c2ccccc2C(=O)c2oc(-c3cccnc3)nc21 |  |  |  |
|  | 2 | CN1CC[C@@H](Oc2ccc(F)c(-c3nc4c(o3)C(=O)c3ccccc3C4=O)c2Cl)C1 | Active | Active | Active |
